Source: patent US20240294572A1, “Antimicrobial Peptides” (priority 2021, published 2024)
Non-standard residues stand in square brackets, D forms with d. Residues, ends and D or L forms follow the SMILES beside them. *: point of attachment. Decanoyl = CCCCCCCCCC(=O)*

How the values were obtained:
[1] = target: T1, Apolipoprotein C-III (P33622) (Mus musculus, UniProt P33622); experiment: Mass spectrometry of mouse plasma proteins bound to bead-immobilized peptide; assay type: binding; conditions: intensity bound to L-form / D-form of C10-KR8
T1 construct: incubated with 5% mouse plasma; from tissue; host or cells: mouse plasma (5%)
T1 sequence (P33622 21-99): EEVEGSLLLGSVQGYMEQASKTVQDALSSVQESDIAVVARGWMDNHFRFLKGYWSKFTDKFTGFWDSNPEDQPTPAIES
Procedure: Dynabeads M-370 amine (2×10^9 beads/mL, 50 μL; Thermo Fisher Scientific) were washed 3 times in sterile PBS (1 mL; GIBCO) and reacted with a bifunctional SM(PEG)4 cross-linker (5 mg/mL in DMSO) containing N-hydroxysuccinimide (NHS) ester and maleimide functional groups. A stable covalent bond between the amino group of beads and the NHS ester of the cross-linker was formed in PBS at pH 7.2 at room temperature for 24 hours with shaking at 80 rpm. The beads were then washed six times with PBS to remove nonreacted cross-linker. Next, peptide C10-KR8 (with a cysteine at the N-terminus) at 5 mg/mL was reacted with the free maleimide group in PBS for 24 hours at room temperature with shaking at 80 rpm. Another round of washing was conducted to remove the nonreacted peptides. Both the L-and D-forms of the peptide were coupled in the same manner. A portion of the beads without peptide coupling was saved as a control.
For serum binding experiments, the beads were resuspended in 500 μL of PBS; 200-μL aliquots of the coated and control dynabead were incubated with 5% mouse plasma for 18 hours at 37° C. After binding, the beads were washed six times with PBS to remove unbound proteins. Finally, the beads were suspended in 50 μL of PBS for mass spectrophotometric analysis to identify peptide-binding partners.
The samples were reduced by 10 mM dithiothreitol (DTT) and incubated for 30 minutes at 56° C. and back to room temperature. A final concentration of 50 mM iodoacetamide was added to alkylate free cysteines followed by further incubation for 20 min in the dark. Bound proteins were enzymatically digested by trypsin (4 μL of 0.5 μg/mL) overnight. A 60 […] portion was transferred to a new Eppendorf® tube and dried for 2 hours. The samples were then dissolved in 20 μL of 2% acetonitrile with 0.1% formic acid before being loaded to Q-tip columns (Pepclean, C18 spin column). Column was activated by pipetting in and out (4× times), 10 μL of 70% acetonitrile with 0.1% formic acid, and equilibrating with the same volume of 2% acetonitrile with 0.1% formic acid. Binding of the samples was done by mixing more than 10 × times, followed by washing in the same buffer (2% acetonitrile with 0.1% formic acid). The bound peptides were then eluted with 20 μL of 70% acetonitrile with 0.1% formic acid. Samples were subjected to LC-MS analysis after being suspended in the desired buffer.
Extracted peptides were resuspended in 2% acetonitrile (ACN) and 0.1% formic acid (FA) and loaded onto trap column Acclaim™ PepMap™ 100 75 μm×2 cm C18 LC Columns (Thermo Scientific) at a flow rate of 4 μL/minute. These were then separated with a Thermo RSLC UltiMate™ 3000 on a Thermo Easy-Spray PepMap™ M RSLC C18 75 μm×50 cm C-18 2 μm column (Thermo Scientific) with a step gradient of 4-25% solvent B (0.1% FA in 80% ACN) from 10 to 37 minutes and 25-45% solvent B for 37-46 minutes at 300 nL/min and 50° C. with a 70 minute total run time. Eluted peptides were analyzed by a Thermo Orbitrap Fusion™ Lumos™ Tribrid™ (Thermo Scientific) mass spectrometer in a data dependent acquisition mode. A survey full scan MS (from m/z 350-1800) was acquired in the orbitrap with a resolution of 120000. The AGC target for MS1 was set as 4×10^5 and the ion filling time set as 100 ms. The most intense ions with charge state 2-6 were isolated in 3 second cycle and fragmented using HCD fragmentation with 40% normalized collision energy and detected at a mass resolution of 30000 at 200 m/z. The AGC target for MS/MS was set as 5×10^4 and ion filling time set 60 ms dynamic exclusion was set for 30 seconds with a 10 ppm mass window. Protein identification was performed by searching MS/MS data against the Swiss-Prot mouse protein database. The search was set up for full tryptic peptides with a maximum of two missed cleavage sites. Acetylation of protein N-terminus and oxidized methionine were included as variable modifications, and carbamidomethylation of cysteine was set as fixed modification. […]

S. aureus USA300 = experiment: Bacterial membrane depolarization (DiBAC4(3)); assay type: cell-based; conditions: 3.1, 6.25, 12.5, and 25 μM; 40 minutes
Procedure: The experiment was conducted as described (Marks, et al. (2013) PLOS One 8:e63158). In brief, an overnight culture of S. aureus USA300 was subcultured in a fresh TSB medium and grown to the exponential phase. Cells were spun using centrifugation, washed 2× with PBS, resuspended in twice the volume of PBS containing 25 mM glucose, and incubated at 37° C. for 15 minute. For membrane depolarization measurements, 500 nM (final concentration) of the dye DiBAC4 (3) bis(1,3-dibutylbarbituric acid) trimethine oxonol (ANASPEC, CA) was added, and the reaction mixture was vortexed gently. Aliquots of 90 μL of the energized bacteria solution were loaded to the wells, and the plate was fed into a FLUOstar® Omega microplate reader. Fluorescence was read for 20 minutes at excitation and emission wavelengths of 485 and 520 nm, respectively, to get dye normalization. Then, 10 μL of the peptide solution was added and gently mixed. Fluorescence readings were recorded for 40 minutes, where Triton™ X-100 (0.1%) was used as a positive control.

[2] = test system: MCP-1, IL-17A, IL-10, TNF-α; experiment: Cytokine quantification in tissues surrounding catheters; assay type: in vivo, mice; conditions: day 3 after peptide treatment
Procedure: The catheter-associated tissue homogenates/plasma samples stored at −80° C. were thawed to room temperature for the cytokines quantification using the BioLegend® individual mouse cytokine kit. The protocol for sample preparation and analysis was per the manufacturer manual. The samples were in duplicates with appropriate standards. The data are represented as mean±SD. Plots were generated using GraphPad prism 7, where * indicates p<0.05, **p<0.01, ***p<0.001, and NS means no significance (nonparametric, unpaired, Mann-Whitney test).

SMILES	L/D Ratio, Apolipoprotein C-III [1]	membrane depolarization ability (order) (S. aureus USA300)	level of IL-10 in surrounding tissues of catheters [2]	level of IL-17A in surrounding tissues of catheters [2]	level of MCP-1/CCL2 in surrounding tissues of catheters [2]	level of TNFα in surrounding tissues of catheters [2]
CCCCCCCCCC(=O)N[C@@H](CCCCN)C(=O)N[C@@H](CCCNC(=N)N)C(=O)N[C@H](C(=O)N[C@@H](Cc1c[nH]c2ccccc12)C(=O)N[C@@H](CCC(N)=O)C(=O)N[C@@H](CCCNC(=N)N)C(=O)N[C@H](C(=O)N[C@@H](CCCCN)C(N)=O)[C@@H](C)CC)[C@@H](C)CC [Peptide C10-KR8] (Decanoyl-KRIWQRIK-NH2)	3.62	–	–	–	–	–
CCCCCCCCCC(=O)N[C@H](CCCCN)C(=O)N[C@H](CCCNC(=N)N)C(=O)N[C@@H](C(=O)N[C@H](Cc1c[nH]c2ccccc12)C(=O)N[C@H](CCC(N)=O)C(=O)N[C@H](CCCNC(=N)N)C(=O)N[C@@H](C(=O)N[C@H](CCCCN)C(N)=O)[C@H](C)CC)[C@H](C)CC [Peptide C10-KR8d] (Decanoyl-[dK][dR][dI][dW][dQ][dR][dI][dK]-NH2)	–	Triton™ X-100>17BIPHE2>C10-KR8d>daptomycin	decrease	up-regulation	up-regulation	decrease
